Measured values as given in article PMC7283364 (ACS infectious diseases, 2019).
Where “and” joins values, the source holds several entries; their conditions need not be identical. Equal values may be shown once. Read-outs that look alike come from different tables or passages of the source. Values belong to the compound of their own block, whether it stands above or below them. Where a SMILES comes first, the peptide text is derived from it. The star is where a group is joined. Cbz = O=C(OCc1ccccc1)*

Key:
adult S. mansoni [1] = assay: WormAssay quantitative motility assay of adult worms in culture; type: cell-based, Schistosoma mansoni; details: 1 μM, mixed-sex adults
adult S. mansoni [2] = assay: Microscopic observation of phenotypic changes of adult worms in culture; type: cell-based, Schistosoma mansoni; details: 1 μM; for phenotype viewed under the microscope: 72 h; for phenotypic changes: 24 h
[3] = tested on: caspase activity in adult S. mansoni; assay: Caspase activity; type: cell-based, Schistosoma mansoni; details: 1 μM, 24 h, Ac-DEVD-AFC
[4] = tested on: S. mansoni proteasome β5 subunit; assay: Inhibition of proteasome activity; type: biochemical, Schistosoma mansoni; details: 1 μM inhibitor added to lysate, Suc-LLVY-AMC, E-64 present
[5] = tested on: S. mansoni proteasome β5 subunit; assay: Proteasome inhibition in living worms exposed to inhibitors; type: cell-based, Schistosoma mansoni; details: worms exposed to 1 μM for 24 h, washed, extracts assayed with Suc-LLVY-AMC
Sm20S β1 subunit = Sm20S β1 subunit (Schistosoma mansoni, UniProt G4V926); assay: Sm20S β1 inhibition assay; type: biochemical; details: for IC50: read-out: IC50 Sm20S β1, z-LLE-AMC
Sm20S β2 subunit [6] = molecular target: Sm20S β2 subunit (Schistosoma mansoni, UniProt G4VSW3); assay: Sm20S β2 inhibition assay; type: biochemical; details: for IC50: read-out: IC50 Sm20S β2, z-LRR-AMC
Sm20S β5 subunit = Sm20S β5 subunit (Schistosoma mansoni, UniProt A0A5K4F079); assay: Sm20S β5 inhibition assay; type: biochemical
[7] = tested on: Schistosoma mansoni infectious larvae (cercariae); details: cercariae pre-treated with 50 μM; cited from earlier work
Sm20S β2 subunit [8] = assay: Sm20S β2 inhibition assay; type: biochemical
[9] = molecular target: human immunoproteasome (i20S) β5 subunit (Homo sapiens, UniProt P28062); assay: i20S β5 inhibition assay; type: biochemical; details: for fold less potent towards i20S β5: compared with c20S and Sm20S β5
[10] = molecular target: human immunoproteasome (i20S) β2 subunit (Homo sapiens, UniProt P40306); assay: i20S β2 inhibition assay; type: biochemical
HepG2 cells [11] = tested on: HepG2 cells
HepG2 cells [12] = details: cited from earlier work
[13] = molecular target: human immunoproteasome (i20S) β1 subunit (Homo sapiens, UniProt P28065); assay: i20S β1 inhibition assay; type: biochemical; details: read-out: IC50 i20S β1

SMILES: CC(C)C[C@H](NC(=O)[C@H](CCc1ccccc1)NC(=O)CN1CCOCC1)C(=O)N[C@@H](Cc1ccccc1)C(=O)N[C@@H](CC(C)C)C(=O)[C@@]1(C)CO1 [carfilzomib]
decrease in worm motility (adult S. mansoni [1]; 6 h): 47%
phenotype viewed under the microscope (adult S. mansoni [2]): phenotypic changes were similar to those observed for bortezomib
increase in caspase activity compared to the DMSO control [3]: 4.5 fold
reduction of proteolytic activity in worm lysate [4]: 100%
decrease in endogenous proteasome (β5) activity in living worms [5]: 84% and > 75%
fold less potent against Sm20S β1 compared to bortezomib (Sm20S β1 subunit): more than 33 fold
IC50 (Sm20S β1 subunit): > 500 nM
fold more potent against Sm20S β2 compared to bortezomib (Sm20S β2 subunit [6]): 5.6 fold
IC50 (Sm20S β2 subunit [6]): 48 nM
fold more potent against Sm20S β5 compared to bortezomib (Sm20S β5 subunit): 18 fold
selectivity for Sm20S β5 subunit over β1 (Sm20S β5 subunit): ~1000 fold
selectivity for Sm20S β5 subunit over β2 (Sm20S β5 subunit): approximately 100 fold

SMILES: CC(C)C[C@@H](C=O)NC(=O)[C@H](CC(C)C)NC(=O)[C@H](CC(C)C)NC(=O)OCc1ccccc1 [MG132] (Cbz-Leu-Leu-Leu-aldehyde)
decrease in worm motility (adult S. mansoni [1]; 24 h): did not alter motility
phenotype viewed under the microscope (adult S. mansoni [2]): appeared normal in shape, movement and color
increase in caspase activity compared to the DMSO control [3]: not significantly different from the DMSO control
reduction of proteolytic activity in worm lysate [4]: 92%
decrease in endogenous proteasome (β5) activity in living worms [5]: no effect on proteasome activity
reduction in parasite establishment compared to control-treated mice [7]: 96%

IC50 (Sm20S β1 subunit): 15 nM
IC50 (Sm20S β2 subunit [6]): 272 nM
IC50 (Sm20S β5 subunit): 9 nM
potency for Sm20S β1 compared with β5 (Sm20S β5 subunit): equal potency
SMILES: CC(C)C[C@H](NC(=O)[C@H](Cc1ccccc1)NC(=O)c1cnccn1)B(O)O [bortezomib]
decrease in worm motility (adult S. mansoni [1]; 6 h): 45%
phenotypic changes (adult S. mansoni [2]): same deleterious phenotypic changes previously noted for bortezomib
phenotype viewed under the microscope (adult S. mansoni [2]): relatively motionless, unable to extend or flex their bodies and darkened, and had detached from the surface of the well
increase in caspase activity compared to the DMSO control [3]: 7 fold
reduction of proteolytic activity in worm lysate [4]: 99%

fold less potent towards i20S β5 [9]: at least 5 fold
SMILES: CCCCCC(=O)N[C@@H](Cc1ccccc1)C(=O)N[C@@H](CCCC)C(=O)N[C@@H](Cc1ccccc1)C(=O)[C@@]1(C)CO1 [analog 7]
fold more potent for Sm20S β2 relative to c20S (Sm20S β2 subunit [8]): 3.3 fold

SMILES: CCCCCC(=O)N[C@H](C(=O)N[C@@H](CCCC)C(=O)N[C@@H](CC(C)C)C(=O)[C@@]1(C)CO1)C(C)C [analog 1]
difference in potency between c20S and Sm20S (Sm20S β5 subunit; all subunits): no difference in potency
fold less potent towards i20S β2 ([10]; compared with c20S and Sm20S β2): at least 5 fold
fold less potent towards i20S β5 [9]: at least 5 fold
fold less cytotoxic to HepG2 cells than carmaphycin B (HepG2 cells [11]): 11 fold
EC50 (HepG2 cells [12]): 134 nM

SMILES: CCCCCC(=O)N[C@H](C(=O)N[C@@H](CCS(C)(=O)=O)C(=O)N[C@@H](CC(C)C)C(=O)[C@@]1(C)CO1)C(C)C [carmaphycin B]
decrease in worm motility (adult S. mansoni [1]; 24 h): at least 80%
phenotypic changes (adult S. mansoni [2]): same deleterious phenotypic changes previously noted for bortezomib
decrease in endogenous proteasome (β5) activity in living worms [5]: at least 80%
IC50 (Sm20S β1 subunit): > 500 nM
IC50 (Sm20S β2 subunit [6]): 0.6 nM
IC50 (Sm20S β5 subunit; read-out: IC50 Sm20S β5, Suc-LLVY-AMC): 9.8 nM
IC50 [13]: > 500 nM
IC50 ([10]; read-out: IC50 i20S β2): 62 nM
IC50 ([9]; read-out: IC50 i20S β5): < 5 nM
